Assay: gradient 5% acetonitrile 3 min, to 50% in 2 min, to 85% in 15 min, held 3 min, 100 µL/min
Settings: column: Zorbax Extend-C18 2.1 x 50 mm; eluents: water / acetonitrile, 0.1% formic acid
In short: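 Pure standards were run in mixtures of ~100 molecules by HPLC coupled to a quadrupole time-of-flight mass spectrometer. The column was a Zorbax Extend-C18 (2.1 × 50 mm, 1.8 μm) at 100 μL/min, with water and acetonitrile each containing 0.1% formic acid, in positive and negative ionization mode. Dead and dwell volumes were 40 μL and 900 μL. Retention time was taken from computationally picked adduct peaks, each manually inspected, with data collected over 3 months.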

RP-LC retention time [s] | SMILES
1270 | CCc1ccc(-n2ncc3c(=O)n(Cc4nc(-c5ccc(Cl)cc5)no4)cnc32)cc1
712 | CC(C)c1nnc2ccc(NC(=O)Nc3ccccc3)cn12
644 | Cn1cccc(C(=O)Nc2ccc(N3CCCS3(=O)=O)cc2)c1=O
574 | CCCNc1cc(N2CCC(CCC(=O)NCCN3CCc4ccccc4C3)CC2)ncn1
607 | Cn1ncc2c3ccccc3n(CCCC(=O)N3CCN(c4ccccn4)CC3)c2c1=O
700 | CS(=O)(=O)NCC1CCC(C(=O)Nc2cccc3nsnc23)CC1 (stereo unspecified)
978 | CCC(c1cccs1)N1C(=O)[C@H]2CN(S(=O)(=O)c3ccc(F)c(C)c3)C[C@H]2C1=O (stereo partly specified)
810 | Cn1ncc2c3ccccc3n(CCCC(=O)NCc3ccccc3)c2c1=O
830 | Cc1oc(C)c(S(=O)(=O)NC2CC2)c1C(=O)NCc1ccc2c(c1)OCO2
627 | COCc1cc(=O)n(CC(=O)Nc2cc(F)ccc2C)c(N)n1
655 | CCN(CC)C(=O)[C@]1(c2ccccc2)C[C@@H]1CN
788 | CCCCOc1ccc(C(=O)N2CCN(c3cc(C)nc(N4CCCC4)n3)CC2)cc1
720 | O=C(Nc1ccc2c(c1)OCCO2)NC1CCN(c2ccccc2)C1=O (stereo unspecified)
926 | O=C(c1cccs1)N1CCCC1c1nc(-c2ccc(F)cc2F)no1 (stereo unspecified)
843 | CC(C)n1c(N2CCCN(C(=O)COc3ccccc3)CC2)cc(=O)n(C(C)C)c1=O
577 | C#CCOCC(O)CN1CCN(c2cc(Cl)ccc2C)CC1 (stereo unspecified)
813 | O=C(NCc1ccco1)N1CCc2nc(-c3ccc(F)cc3)ncc2C1
718 | COc1ccc(NC(=O)Nc2cccn3c(C4CCC4)nnc23)cc1OC
745 | COc1ccc(NC(=O)N2C[C@@H]3C[C@H](NS(=O)(=O)c4ccccc4)[C@H]2C3)c(OC)c1

RP-LC retention time [s] | SMILES
596 | CCNC(=O)c1cc(C)no1
914 | CCCCn1nc2c(S(=O)(=O)N3CCc4ccccc4C3)cccn2c1=O
975 | Cc1c(Cl)cccc1Nc1c(-c2ccc3c(c2)OCO3)nc2cnccn12
692 | O=C(c1cccnc1)N1CCN(C(=O)c2nnn3c2COC(c2ccc(Cl)cc2)C3)CC1 (stereo unspecified)
1110 | Cc1sc(-c2cc(C(F)(F)F)[nH]n2)cc1S(=O)(=O)N1CCN(c2ccccc2)CC1
878 | COc1cc(C(=O)Nc2cnn(C)c(=O)c2N2CCCCC2)cc(OC)c1OC
745 | CCC(=O)N1CCc2cc(N3CC(C(=O)NCc4cccc(C)c4)CC3=O)ccc21 (stereo unspecified)
1090 | O=c1c2sccc2n(Cc2nc(-c3ccc(C(F)(F)F)cc3)no2)c(=O)n1-c1cccc(F)c1
753 | COCCCNC(=O)C1c2ccccc2C(=O)N1Cc1ccccc1C (stereo unspecified)
1240 | CCOC(=O)C1CCN(c2ncccc2-c2nnc(-c3ccc(Cl)cc3)o2)CC1
693 | CNC(=O)C1CCN(Cc2cc3ccccc3n2Cc2ccc(C)cc2)CC1
658 | COCCNC(=O)Cn1ccc2c(SCc3ccc(C)cc3)nccc21
624 | CCc1nc2cccnc2n1CCN1CCN(C(=O)Nc2ccc(Br)cc2F)CC1
1170 | Cc1ccc(NC(=O)C2CCCN(S(=O)(=O)c3cc(-c4noc(C5CCC5)n4)cs3)C2)cc1 (stereo unspecified)
922 | CCC(C)NC(=O)c1nc(Cn2c(=O)oc3ccc(Cl)cc32)no1 (stereo unspecified)
887 | CCOc1ccccc1C1C(C(=O)OC)=C(C)NC2=C1C(=O)c1ccccc12 (stereo unspecified)
773 | O=C(CN1C(=O)c2cccnc2Sc2ccccc21)NCCc1c[nH]c2ccccc12
936 | COc1ccc(NC(=O)CCc2nc(-c3ccc(N4CCCC4)cc3)no2)cc1OC
695 | CCNC(=O)CCCN1C(=O)CCn2nc(-c3cn(C)c4ccccc34)cc21

The remaining lines, values behind:

SMILES | RP-LC retention time [s]
O=C(NCc1cc(F)ccc1F)C1CCCN(c2cnc3nccnc3c2)C1 (stereo unspecified) | 715
O=C(CN1CCc2ccccc2C1C(=O)N1CCCC1)Nc1cccc(Br)c1 (stereo unspecified) | 921
Cc1ccc(Cl)cc1NC(=O)C1CCN(S(=O)(=O)c2cc3c(cc2C)NC(=O)CO3)CC1 | 863
Cc1nc(Nc2nccc(-c3ccccc3)n2)nc2ccccc12 | 677
CCCS(=O)(=O)N1CC(=O)N(c2ccc(Cl)cc2C)C(C)(C(=O)NC2CCCCC2)C1 (stereo unspecified) | 1040
O=C1C(NS(=O)(=O)Cc2cc(F)cc(F)c2)CCN1c1ccccc1 (stereo unspecified) | 914
O=C(NCc1noc(C2CCCC2)n1)c1coc(C2CC2)n1 | 821
Cc1ccsc1C(=O)Nc1ccc(SCc2nnc(-c3ccc4c(c3)OCO4)o2)cc1 | 978
O=S(=O)(c1cccn2c(SCc3ccccc3)nnc12)N1CCCC1 | 808
Cc1nc(OCC(=O)Nc2cccc(C(F)(F)F)c2)c2ccccc2n1 | 817
CCc1nn2c(nnc3c(=O)n(CCc4c[nH]c5ccccc45)ccc32)c1-c1ccccc1 | 1010
O=C(NCc1ccco1)C1CCCN(c2nnc3ccc(Cl)cn23)C1 (stereo unspecified) | 687
Cc1cccn2c(=O)cc(CN(Cc3ccccc3)Cc3ccco3)nc12 | 676
O=C(CCNc1cnc2cnccn12)NCc1ccc2c(c1)OCO2 | 564
CC(C)CCNC(=O)c1c(OCC2CC2)cc(=O)n2c1CCCCC2 | 774
Cc1cccc(-n2c(=O)c3c(cc(C)n3C)n(CC(=O)Nc3cc(C)ccc3C)c2=O)c1 | 844
O=C(c1ccc(F)cc1F)N1CCc2nc(-c3ccc(Cl)cc3)ncc2C1 | 1060
Cc1ccccc1-c1nc(C2CCN(S(=O)(=O)c3ccc4c(c3)CCCC4)CC2)no1 | 1380
COc1ccc2c(c1)C1(CCN(S(=O)(=O)c3ccc(Cl)cc3)C1)C(=O)N2 (stereo unspecified) | 894
Cc1cc(C)cc(Oc2nccn3c(=O)n(CC(=O)NC4CCCC4)nc23)c1 | 834
COCCCNC(=O)C1CCCN(C(=O)c2cccc(C(F)(F)F)c2)C1 (stereo unspecified) | 698
Cn1cccc1C(=O)N1C[C@H]2C[C@H](C1)[C@H]1CCCC(=O)N1C2 | 639
O=C(Cc1nnc(-c2ccc3ncccc3c2)o1)Nc1ccc(F)cc1 | 697
O=C(Cc1cc(-c2ccc(Cl)cc2)on1)NCCCn1ccnc1 | 582
Cc1oc2c(c1C(=O)Nc1cccc(C(F)(F)F)c1)C1=NCCN1C=N2 | 652
COc1ccc(Br)cc1CNC(=O)CCC(=O)N1CCSc2nc(C)cc(C)c21 | 725
CCc1nc2cccnc2n1C1CCN(C(=O)c2ccc(C(F)(F)F)cc2)C1 (stereo unspecified) | 649
CCOc1ccccc1-c1noc(-c2nnn3c2COC(c2ccc(Cl)cc2)C3)n1 (stereo unspecified) | 1150
